Reference: patent publication US20190185479A1, “BICYCLIC NITROGENATED HETEROCYCLIC COMPOUND” (MITSUBISHI TANABE PHARMA CORPORATION, priority 2016, published 2019)

How the values were obtained:
Assay type in all cases: biochemical
hPDE8B = target: T1, hPDE8B (Homo sapiens, UniProt O95263); assay: PDE8 inhibition assay (IC50), Experimental Example 3; conditions: for inhibition at 1 µM / inhibition at 10 µM: read-out: inhibition rate (%) at prescribed concentration, PDE8; for IC50: hPDE8B, read-out: PDE inhibition assay IC50, PDE8; for inhibition at 10 µM: at 10 μmol/L
T1 construct: purchased SB Drug Discovery
Method: (§1) PDE7 inhibitory assay was carried out by reacting the mixture of a compound, hPDE7B, and cAMP, and measuring the residual cAMP by a detection method using LANCE (registered trademark) Ultra cAMP Detection Kit (ParkinElmer). The compound was dissolved in DMSO, and diluted so that the concentration would become 50 times of the final concentration. The hPDE7B and cAMP were diluted with an assay buffer (50 mmol/L Tris-HCl, 1 mmol/L MgCl2, 0.1% BSA, 0.5 mmol/L DTT, pH7.5) so that the hPDE7B would have an appropriate enzyme activity and the concentration of cAMP would become 6 nmol/L. To a 96 well plate were added the compound (2 μL) (DMSO final concentration: 2%), hPDE7B (48 μL), and cAMP (50 μL) (concentration at the reaction: 3 nmol/L), and the resulting mixture was reacted at room temperature for 60 minutes. The reaction solution (20 μL) was subjected to a TR-FRET method according to the protocol specified by the kit to measure the concentration of the residual cAMP. In the assay, to a tracer solution specified by the kit was added 0.5 mmol/L of 3-isobutyl-1-methylxanthine (IBMX, nonselective PDE inhibitor) in order to stop the PDE enzyme reaction after the completion of reaction until the measurement.
(§2) The prediction of PDE7 selectivity was evaluated by comparing each IC50 value of a compound against PDE4, 8, and 10 with the IC50 value of said compound against PDE7B.
(§3) hPDE4D, hPDE8B, and hPDE10A were prepared by the same method as [Method for preparing samples 2].
(§4) PDE4, 8, and 10 inhibitory assays were carried out by the same method as [Assay procedure 1].
(§5) The reaction without a compound wad defined as “0% inhibition”, the reaction without each PDE was defined as “100% inhibition”, and the calculation of IC50 value was carried out by the same method as <Method for data calculation 1>.

hPDE10A = hPDE10A (Homo sapiens, UniProt Q9Y233); assay: PDE10 inhibition assay (IC50), Experimental Example 3; conditions: for IC50: hPDE10A, read-out: PDE inhibition assay IC50, PDE10; for inhibition at 10 µM: at 10 μmol/L; for inhibition at 10 µM / inhibition at 100 µM: read-out: inhibition rate (%) at prescribed concentration, PDE10; for inhibition at 100 µM: at 100 μmol/L
Method: as §1, §2, §3, §4, §5

Human PDE7B (hPDE7B) = target: T2, Human PDE7B (hPDE7B) (Homo sapiens, UniProt Q9NP56); assay: Measurement of PDE7 inhibitory activity (Experimental Example 1; residual cAMP, LANCE Ultra cAMP TR-FRET); conditions: cAMP 3 nmol/L, room temperature 60 minutes
T2 construct: made in house; host or cells: COS-7 cells
Method in brief: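 hPDE7B from transfected COS-7 cells reacted with 3 nmol/L cAMP (final) and compound (2% DMSO) in 50 mmol/L Tris-HCl pH 7.5, 1 mmol/L MgCl2, 0.1% BSA, 0.5 mmol/L DTT, 60 min at room temperature. Reaction stopped with IBMX; residual cAMP measured by TR-FRET. Inhibition scaled between no-compound and no-enzyme controls.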

hPDE4D = target: T3, hPDE4D (Homo sapiens, UniProt Q08499); assay: PDE4 inhibition assay (IC50), Experimental Example 3; conditions: for IC50: hPDE4D, read-out: PDE inhibition assay IC50, PDE4; for inhibition at 10 µM: at 10 μmol/L
T3 construct: purchased SB Drug Discovery
Method: as §1, §2, §3, §4, §5

[1] = read-out: inhibition rate (%) at prescribed concentration, PDE4

Chain of hPDE10A (Q9Y233 290-1055 limits assumed): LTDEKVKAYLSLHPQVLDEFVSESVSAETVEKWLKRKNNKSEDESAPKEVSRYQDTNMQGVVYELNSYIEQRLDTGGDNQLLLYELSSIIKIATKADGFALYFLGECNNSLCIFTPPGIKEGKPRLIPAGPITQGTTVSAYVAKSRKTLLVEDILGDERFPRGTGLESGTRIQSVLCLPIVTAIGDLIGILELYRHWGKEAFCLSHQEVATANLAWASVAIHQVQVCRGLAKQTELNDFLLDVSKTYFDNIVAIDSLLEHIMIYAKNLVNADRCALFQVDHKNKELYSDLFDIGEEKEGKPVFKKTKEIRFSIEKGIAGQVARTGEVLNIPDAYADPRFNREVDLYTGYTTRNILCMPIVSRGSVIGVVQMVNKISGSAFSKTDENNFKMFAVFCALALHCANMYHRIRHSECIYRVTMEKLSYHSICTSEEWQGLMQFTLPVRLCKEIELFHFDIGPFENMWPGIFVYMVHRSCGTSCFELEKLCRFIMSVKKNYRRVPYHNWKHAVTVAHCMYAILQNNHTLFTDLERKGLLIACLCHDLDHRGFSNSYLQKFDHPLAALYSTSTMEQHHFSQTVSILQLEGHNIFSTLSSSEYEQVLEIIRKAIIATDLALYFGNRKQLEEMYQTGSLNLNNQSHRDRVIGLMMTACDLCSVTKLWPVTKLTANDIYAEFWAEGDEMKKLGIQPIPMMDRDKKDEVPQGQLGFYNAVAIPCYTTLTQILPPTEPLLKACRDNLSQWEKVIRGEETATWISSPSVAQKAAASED
T3 sequence (Q08499 whole entry): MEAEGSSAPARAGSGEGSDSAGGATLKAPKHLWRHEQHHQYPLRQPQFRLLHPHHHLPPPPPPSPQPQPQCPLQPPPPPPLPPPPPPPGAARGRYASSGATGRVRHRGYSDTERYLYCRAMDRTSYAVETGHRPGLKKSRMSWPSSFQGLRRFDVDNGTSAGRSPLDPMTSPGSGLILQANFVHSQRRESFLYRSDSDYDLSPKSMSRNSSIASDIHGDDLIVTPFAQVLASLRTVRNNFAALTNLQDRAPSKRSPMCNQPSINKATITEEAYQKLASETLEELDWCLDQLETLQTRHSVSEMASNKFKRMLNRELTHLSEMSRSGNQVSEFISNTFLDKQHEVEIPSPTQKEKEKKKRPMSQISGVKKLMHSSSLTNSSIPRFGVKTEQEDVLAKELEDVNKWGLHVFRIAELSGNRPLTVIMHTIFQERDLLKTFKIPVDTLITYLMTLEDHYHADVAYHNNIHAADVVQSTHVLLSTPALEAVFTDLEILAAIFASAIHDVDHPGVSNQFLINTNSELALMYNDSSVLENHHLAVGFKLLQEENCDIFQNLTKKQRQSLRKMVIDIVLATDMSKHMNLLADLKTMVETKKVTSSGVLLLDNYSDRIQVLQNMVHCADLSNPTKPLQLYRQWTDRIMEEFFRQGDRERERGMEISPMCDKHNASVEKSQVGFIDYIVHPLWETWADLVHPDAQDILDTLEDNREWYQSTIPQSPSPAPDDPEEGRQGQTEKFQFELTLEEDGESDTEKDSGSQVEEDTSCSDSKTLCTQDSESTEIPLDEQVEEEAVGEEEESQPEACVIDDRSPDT
T2 sequence (Q9NP56 whole entry): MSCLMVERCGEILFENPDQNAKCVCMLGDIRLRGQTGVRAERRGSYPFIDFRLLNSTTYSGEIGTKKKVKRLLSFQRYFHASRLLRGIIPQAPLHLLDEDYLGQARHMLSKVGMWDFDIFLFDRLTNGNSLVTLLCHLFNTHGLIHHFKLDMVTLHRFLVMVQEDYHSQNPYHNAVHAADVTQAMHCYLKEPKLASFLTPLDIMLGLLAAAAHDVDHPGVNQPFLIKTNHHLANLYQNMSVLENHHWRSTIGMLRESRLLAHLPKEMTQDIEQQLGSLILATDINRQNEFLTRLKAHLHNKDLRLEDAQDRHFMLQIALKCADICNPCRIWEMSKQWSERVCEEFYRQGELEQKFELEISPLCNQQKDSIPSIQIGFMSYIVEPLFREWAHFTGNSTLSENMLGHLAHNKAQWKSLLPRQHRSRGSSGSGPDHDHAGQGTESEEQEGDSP
T1 sequence (O95263 whole entry): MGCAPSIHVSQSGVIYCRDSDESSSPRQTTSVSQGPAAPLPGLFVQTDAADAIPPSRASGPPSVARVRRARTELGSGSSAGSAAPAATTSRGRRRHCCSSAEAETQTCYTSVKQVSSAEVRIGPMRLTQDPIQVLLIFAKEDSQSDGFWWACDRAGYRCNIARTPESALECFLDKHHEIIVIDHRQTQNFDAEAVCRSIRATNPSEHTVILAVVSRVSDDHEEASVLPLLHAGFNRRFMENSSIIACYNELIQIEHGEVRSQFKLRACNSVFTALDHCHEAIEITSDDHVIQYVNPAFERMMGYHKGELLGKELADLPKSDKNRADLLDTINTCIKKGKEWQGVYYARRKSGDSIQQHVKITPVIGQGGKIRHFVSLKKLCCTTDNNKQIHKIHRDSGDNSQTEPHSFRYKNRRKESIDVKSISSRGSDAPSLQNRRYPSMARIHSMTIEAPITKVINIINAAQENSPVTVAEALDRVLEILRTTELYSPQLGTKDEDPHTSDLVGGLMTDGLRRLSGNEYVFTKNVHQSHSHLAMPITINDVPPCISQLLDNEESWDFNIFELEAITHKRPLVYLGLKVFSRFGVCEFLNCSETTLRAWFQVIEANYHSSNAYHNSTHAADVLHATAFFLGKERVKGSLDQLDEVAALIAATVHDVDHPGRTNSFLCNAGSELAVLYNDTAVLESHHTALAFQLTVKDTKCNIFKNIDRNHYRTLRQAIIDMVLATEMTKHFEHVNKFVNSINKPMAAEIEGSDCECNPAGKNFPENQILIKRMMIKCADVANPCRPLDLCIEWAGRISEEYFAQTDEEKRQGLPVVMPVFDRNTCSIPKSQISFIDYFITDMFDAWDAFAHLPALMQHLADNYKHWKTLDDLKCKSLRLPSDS

Row | SMILES | inhibition at 1 µM (hPDE8B; at 1 μmol/L) [%] | IC50 (hPDE10A) [µM] | IC50 (Human PDE7B (hPDE7B)) [µM] | inhibition at 1 µM (hPDE4D; at 1 μmol/L, read-out: inhibition rate (%) at prescribed concentration, PDE4) [%] | IC50 (hPDE8B) [µM] | inhibition at 10 µM (hPDE10A) [%] | IC50 (hPDE4D) [µM] | inhibition at 100 µM (hPDE10A) [%] | inhibition at 10 µM (hPDE8B) [%] | inhibition rate (%) at prescribed concentration, PDE8 (hPDE8B; at 1 μmol/L) [% at 1] | inhibition at 10 µM (hPDE4D; [1]) [%]
1 | CC1CCCCC1c1nnc2c(N)ncnn12 (single isomer, unassigned) [Example 238, 3-(cis-2-methylcyclohexyl) [1,2,4]triazolo[3,4-f][1,2,4]triazin-8-amine] | 51 | 1.9 | < 0.01 | 63 | – | – | – | – | – | – | –
2 | Nc1nccn2c(C3[C@H]4CCCC[C@@H]34)nnc12 (stereo partly drawn) [Example 164, 3-[(1R,6S,7r)-bicyclo[4.1.0]hept-7-yl][1,2,4]triazolo[4,3-a]pyrazin-8-amine] | – | – | 0.03 | – | 4.4 | 41 | 3.79 | – | – | – | –
3 | Nc1nccn2c(N3C4CCCC3CC4)nnc12 [Example 67] | – | 31.8 | 0.09 | – | 15 | – | 21 | – | – | – | –
4 | C[C@@H]1CCCCN1c1nnc2c(N)nccn12 [Example 22, 3-(2-methylpiperidin-1-yl) [1,2,4]triazolo[4,3-a]pyrazin-8-amine] | – | 5.5 | 0.04 | – | 5.8 | – | 8.3 | – | – | – | –
5 | CC1CC(C)CN(c2nnc3c(N)ncc(C#N)n23)C1 (racemic) [Example 54, 8-amino-3-(3,5-dimethylpiperidin-1-yl) [1,2,4]triazolo[4,3-a]pyrazine-5-carbonitrile] | – | – | 0.04 | – | 3.35 | – | 7.86 | 30 | – | – | –
6 | CCC1CCCCN1c1nnc2c(N)nccn12 (single isomer, unassigned) [Example 222, 3-(2-ethylpiperidin-1-yl) [1,2,4]triazolo[4,3-a]pyrazin-8-amine] | – | 6.42 | 0.08 | – | 10.6 | – | 3.24 | – | – | – | –
7 | Nc1nccn2c(C3CCCCC3)ncc12 [Example 180, 3-cyclohexylimidazo[1,5-a]pyrazin-8-amine] | – | – | 0.39 | – | – | 41 | 7.8 | – | 36 | – | –
8 | CC1CC(c2nnc3c(N)nccn23)CC(F)(F)C1 (single isomer, unassigned) [Example 214] | – | 15.7 | 0.06 | – | 17.1 | – | 6.4 | – | – | – | –
9 | Nc1ncnn2c(C3CCCC(C(F)(F)F)C3)nnc12 (single isomer, unassigned) [Example 75, 3-[cis-3-(trifluoromethyl)cyclohexyl][1,2,4]triazolo[3,4-f][1,2,4]triazin-8-amine] | – | – | 0.053 | – | 4.33 | – | 27.1 | 44 | – | – | –
10 | CC1CC(C)CN(c2nnc3c(N)nccn23)C1 (single isomer, unassigned) [Example 226, 3-[trans-3,5-dimethylpiperidin-1-yl][1,2,4]triazolo[4,3-a]pyrazin-8-amine] | – | 5.2 | 0.01 | – | 4.2 | – | 3.6 | – | – | – | –
11 | Nc1nccn2c(C3(F)CCCCC3)nnc12 [Example 142, 3-(1-fluorocyclohexyl) [1,2,4]triazolo[4,3-a]pyrazin-8-amine] | – | – | 0.05 | – | – | 48 | 5.72 | – | 49 | – | –
12 | Nc1ncnc2c1nnn2C1CCCCC1F (single isomer, unassigned) [Example 194, 3-(cis-2-fluorocyclohexyl)-3H-[1,2,3]triazolo[4,5-d]pyrimidin-7-amine] | 79 | 12.2 | 0.04 | – | – | – | 6.98 | – | – | – | –
13 | CC1(C)CCCN(c2nnc3c(N)ncc(C4CC4)n23)C1 [Example 43, 5-cyclopropyl-3-(3,3-dimethylpiperidin-1-yl) [1,2,4]triazolo[4,3-a]pyrazin-8-amine] | – | 2.33 | 0.03 | – | 1.52 | – | 2.19 | – | – | – | –
14 | Nc1nccn2c(N3CCCCCC3)nnc12 [Example 29] | – | 11.9 | 0.08 | – | 5.1 | – | 5.4 | – | – | – | –
15 | CC1(C)CCCC(n2nnc3c(N)ncnc32)C1 (racemic) [Example 128, 3-(3,3-dimethylcyclohexyl)-3H-[1,2,3]triazolo[4,5-d]pyrimidin-7-amine] | – | – | 0.02 | – | 1.31 | 43 | 4.53 | – | – | – | –
16 | CC(C)(C)OC(=O)N1CCCCC1c1nnc2c(N)nccn12 (stereo not drawn) [Example 32, tert-butyl 2-(8-amino-[1,2,4]triazolo[4,3-a]pyrazin-3-yl)piperidine-1-carboxylate] | – | 22.6 | 0.08 | – | 2.27 | – | 5.78 | – | – | – | –
17 | CC1CCCN(c2nnc3c(N)nccn23)C1 (stereo not drawn) [Example 24] | – | 12.9 | 0.07 | – | 1.6 | – | 6.3 | – | – | – | –
18 | Nc1nccn2c(N3CCCCC34CC4)nnc12 [Example 38] | – | 25 | 0.08 | – | 2.74 | – | 5.21 | – | – | – | –
19 | Nc1ncnc2c1nnn2C1CCCCCC1 [Example 110, 3-cycloheptyl-3H-[1,2,3]triazolo[4,5-d]pyrimidin-7-amine] | – | – | 0.03 | – | 0.59 | 33 | 3.5 | – | – | – | –
20 | CC1CCCC(c2nnc3c(N)ncnn23)C1 (single isomer, unassigned) [Example 72, 3-(cis-3-methylcyclohexyl) [1,2,4]triazolo[3,4-f][1,2,4]triazin-8-amine] | – | 8.91 | 0.01 | – | – | – | 1.49 | – | – | 62 | –
21 | CC1(C)CCCN(c2nnc3c(N)ncc(C(F)(F)F)n23)C1 [Example 252, 3-(3,3-dimethylpiperidin-1-yl)-5-(trifluoromethyl) [1,2,4]triazolo[4,3-a]pyrazin-8-amine] | 53 | 7.4 | < 0.01 | – | – | – | 1.8 | – | – | – | –
22 | Nc1cncn2c(C3CCCCC3)nnc12 [Example 189, 3-cyclohexyl[1,2,4]triazolo[4,3-c]pyrimidin-8-amine] | – | – | 0.47 | – | – | 0.9 | – | – | 24 | – | 22
23 | CC1(C)CCCN(c2nnc3c(N)ncc(Cl)n23)C1 [Example 248, 5-chloro-3-(3,3-dimethylpiperidin-1-yl) [1,2,4]triazolo[4,3-a]pyrazin-8-amine] | – | 5.57 | < 0.01 | – | 1.51 | – | 1.88 | – | – | – | –
24 | C[C@H]1CC[C@@H](n2nnc3c(N)ncnc32)CC1 [Example 99, 3-(cis-4-methylcyclohexyl)-3H-[1,2,3]triazolo[4,5-d]pyrimidin-7-amine] | – | – | 0.02 | – | 0.12 | 38 | 1.6 | – | – | – | –
25 | Nc1nccn2c(C3CCCOC3)nnc12 (stereo not drawn) [Example 169] | – | 20.8 | 0.09 | – | 1.74 | – | – | – | – | – | 33
26 | CC1(C)CC(c2nnc3c(N)nccn23)CC(F)(F)C1 (single isomer, unassigned) [Example 177, 3-(3,3-difluoro-5,5-dimethylcyclohexyl) [1,2,4]triazolo[4,3-a]pyrazin-8-amine] | – | 13.3 | 0.035 | – | 13.7 | – | 21 | – | – | – | –
27 | CC1CCN(c2nnc3c(N)nccn23)C(C)C1 (racemic) [Example 61, 3-(2,4-dimethylpiperidin-1-yl) [1,2,4]triazolo[4,3-a]pyrazin-8-amine] | – | 16.3 | 0.06 | – | 18.4 | – | 5.8 | – | – | – | –
